Results taken from US20070249637A1, “Inhibitors Of Hepatitis C Virus Protease, And Compositions And Treatments Using The Same” (priority 2004, published 2007).
Read-outs that look alike come from different tables or passages of the source.

Details: rcm bond, 15-membered ring, Grubbs II (0.15 equiv), DCM, 5.0 mM, 40.0 °C, 2.0 h

Compound | ring closure, isolated yield (from C=CCCCCC[C@H](NC(=O)OC(C)(C)C)C(=O)N1C[C@H](Oc2nc(-c3ccccn3)nc3ccsc23)C[C@H]1C(=O)N[C@]1(C(=O)OC)C[C@H]1C=C) | ring closure, isolated yield (from C=CCCCCC[C@H](NC(=O)OC(C)(C)C)C(=O)N1C[C@H](Oc2nc(-c3ccccn3)nc3sccc23)C[C@H]1C(=O)N[C@]1(C(=O)OC)C[C@H]1C=C)
COC(=O)[C@@]12C[C@H]1/C=C\CCCCC[C@H](NC(=O)OC(C)(C)C)C(=O)N1C[C@H](Oc3nc(-c4ccccn4)nc4ccsc34)C[C@H]1C(=O)N2 | 25% | 
COC(=O)[C@@]12C[C@H]1/C=C\CCCCC[C@H](NC(=O)OC(C)(C)C)C(=O)N1C[C@H](Oc3nc(-c4ccccn4)nc4sccc34)C[C@H]1C(=O)N2 |  | 38%
